Paper PMC10278073, “How Is Substrate Halogenation Triggered by the Vanadium Haloperoxidase from Curvularia inaequalis?” (ACS Catalysis, 2023)

T1: vanadium chloroperoxidase (CiVCPO) (Curvularia inaequalis, UniProt P49053)
T1 construct: gene CPO; His-trap purified CiVCPO expressed in E. coli BL21 DE3 (67 kDa)
T1 sequence (P49053 1-609): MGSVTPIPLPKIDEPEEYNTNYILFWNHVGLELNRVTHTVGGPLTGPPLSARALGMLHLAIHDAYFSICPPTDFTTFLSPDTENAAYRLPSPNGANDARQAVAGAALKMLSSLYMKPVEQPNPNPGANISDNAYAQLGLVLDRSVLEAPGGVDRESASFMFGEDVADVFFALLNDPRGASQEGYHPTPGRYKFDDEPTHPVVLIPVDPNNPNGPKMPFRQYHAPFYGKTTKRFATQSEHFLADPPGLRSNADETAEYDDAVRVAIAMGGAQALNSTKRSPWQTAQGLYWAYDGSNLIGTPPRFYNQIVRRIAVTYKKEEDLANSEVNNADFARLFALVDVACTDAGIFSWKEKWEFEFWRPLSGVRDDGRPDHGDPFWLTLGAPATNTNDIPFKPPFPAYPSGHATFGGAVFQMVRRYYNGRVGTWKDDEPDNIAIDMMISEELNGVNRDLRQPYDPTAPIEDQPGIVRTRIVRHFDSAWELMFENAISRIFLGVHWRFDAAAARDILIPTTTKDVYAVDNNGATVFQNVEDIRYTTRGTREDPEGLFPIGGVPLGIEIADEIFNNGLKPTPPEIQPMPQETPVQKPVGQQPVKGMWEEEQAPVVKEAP


Experiments:
[1] = target: T1, vanadium chloroperoxidase (CiVCPO); assay: fluorescence binding titration (quenching), tight-binding fit, pH […]
purified protein = substrate: c1ccc(-c2cc3ccccc3[nH]2)cc1; assay: purified protein; details: vanadate pocket near the protein surface: Pro47, His222, Gln220, Asp292, Gly293, Asp390, Phe393, Pro396, Phe397 (docking/MD only)

Row | Molecule | Kd [1] [nM] | Km (purified protein) [µM]
1 | Cn1c(-c2ccccc2)cc2ccccc21 [methylphenylindole] | 660 ± 50 | 
2 | vanadium chloroperoxidase (CiVCPO) (Curvularia inaequalis) (protein) MGSVTPIPLPKIDEPEEYNTNYILFWNHVGLELNRVTHTVGGPLTGPPLSARALGMLHLAIHDAYFSICPPTDFTTFLSPDTENAAYRLPSPNGANDARQAVAGAALKMLSSLYMKPVEQPNPNPGANISDNAYAQLGLVLDRSVLEAPGGVDRESASFMFGEDVADVFFALLNDPRGASQEGYHPTPGRYKFDDEPTHPVVLIPVDPNNPNGPKMPFRQYHAPFYGKTTKRFATQSEHFLADPPGLRSNADETAEYDDAVRVAIAMGGAQALNSTKRSPWQTAQGLYWAYDGSNLIGTPPRFYNQIVRRIAVTYKKEEDLANSEVNNADFARLFALVDVACTDAGIFSWKEKWEFEFWRPLSGVRDDGRPDHGDPFWLTLGAPATNTNDIPFKPPFPAYPSGHATFGGAVFQMVRRYYNGRVGTWKDDEPDNIAIDMMISEELNGVNRDLRQPYDPTAPIEDQPGIVRTRIVRHFDSAWELMFENAISRIFLGVHWRFDAAAARDILIPTTTKDVYAVDNNGATVFQNVEDIRYTTRGTREDPEGLFPIGGVPLGIEIADEIFNNGLKPTPPEIQPMPQETPVQKPVGQQPVKGMWEEEQAPVVKEAP |  | 1.52
